Experimental data: patent US20200000834A1, “POLYPHENOL GLYCOSIDE-CONTAINING COMPOSITION” (SUNSTAR INC., priority 2018, published 2020)

Legend:
[1] = test system: ACC (acetyl-CoA carboxylase); assay: ACC phosphorylation (pACC/tACC) by western blotting in C2C12 myotubes; format: cell-based, mouse; details: single use or combination in a specific mass ratio
Method: The resultant was used in the following experiment. Since trifolin and astragalin have the same molecular weights, their concentration ratios are the same as the mass ratios. A medium without any addition was used as a negative control, and a medium containing AICAR (final concentration: 2 mM) was used as a positive control. AICAR is a substance that is metabolized to an analog of AMP when taken in a cell.
A mouse skeletal myotube cell line (C2C12) was inoculated in a 6-well cell culture plate. The cell line was cultured in a DMEM medium containing 10% fetal bovine serum and a 1% antibacterial agent at 37° C. in the presence of 5% carbon dioxide for 3 days. […] The protein concentration of each supernatant was measured. […]
After SDS-PAGE, the protein was transferred to a PVDF membrane, and blocking was performed. […] After sufficient washing, chemiluminescence (band) on the membrane was detected using a CCD camera imager (produced by GE Healthcare) (FIG. 1). The band intensity was quantified using image J (NIH). The degree of the activity (i.e., “phosphorylated AMPK/total AMPK (pAMPK/tAMPK)” or “phosphorylated ACC/total ACC (pACC/tACC)”) was expressed as a relative value with the value of the negative control being defined as 1 (FIG. 2a and FIG. 2b).

[2] = test system: AMPK; details: known as; cited from earlier work

Structure (SMILES) | ACC phosphorylation promotion (ACC inactivation promotion) effects [1] | AMPK activation in skeletal muscle [2]
O=c1c(O[C@@H]2O[C@H](CO)[C@H](O)[C@H](O)[C@H]2O)c(-c2ccc(O)cc2)oc2cc(O)cc(O)c12 [trifolin, kaempferol-3-O-galactoside] | almost no effects | –
NC(=O)c1ncn([C@@H]2O[C@H](CO)[C@@H](O)[C@H]2O)c1N [AICAR] | – | significantly activating AMPK
